Read-outs that look alike come from different tables or passages of the source.
Target: T1, MST1 (Homo sapiens, UniProt Q13043)
T1 sequence (Q13043 1-487): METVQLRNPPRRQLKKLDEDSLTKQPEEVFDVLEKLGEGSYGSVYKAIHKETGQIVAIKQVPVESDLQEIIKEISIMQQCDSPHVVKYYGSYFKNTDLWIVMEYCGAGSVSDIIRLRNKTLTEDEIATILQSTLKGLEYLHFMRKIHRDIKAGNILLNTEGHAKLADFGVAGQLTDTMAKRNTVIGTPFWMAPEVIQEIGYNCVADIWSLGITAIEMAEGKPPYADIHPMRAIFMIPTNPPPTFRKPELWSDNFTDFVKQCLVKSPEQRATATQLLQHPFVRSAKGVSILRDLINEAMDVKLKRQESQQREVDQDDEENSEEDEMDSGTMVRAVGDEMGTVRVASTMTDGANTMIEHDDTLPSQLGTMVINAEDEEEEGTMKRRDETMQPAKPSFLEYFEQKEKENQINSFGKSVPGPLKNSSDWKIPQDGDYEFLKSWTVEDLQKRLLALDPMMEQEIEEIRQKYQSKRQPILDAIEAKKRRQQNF
Test: In vitro measurement of MST1 inhibition (Z′-Lyte kinase assay)
Type: biochemical

[1] = 1 μM ATP, read-out: IC50 (μM) 1 μM ATP
[2] = 50 μM ATP, read-out: IC50 (μM) 50 μM ATP

Row | Compound | IC50 [1] [µM] | IC50 [2] [µM]
1 | Nc1ncc(-c2ccc(C(=O)C(F)(F)F)cc2)nc1-c1ccc2c(c1)CCNC2=O [6-(3-amino-6-(4-(2,2,2-trifluoroacetyl)phenyl)pyrazin-2-yl)-3,4-dihydroisoquinolin-1(2H)-one] | < 0.15 | < 0.05
2 | CC(C)(O)c1ccc(-c2cnc(N)c(-c3ccc4c(c3)CCNC4=O)n2)cc1 [6-(3-amino-6-(4-(2-hydroxypropan-2-yl)phenyl)pyrazin-2-yl)-3,4-dihydroisoquinolin-1(2H)-one] | < 0.05 | < 0.01
3 | Nc1ncc(-c2ccc(C3(O)CCOCC3)cc2)nc1-c1ccc2c(c1)CCNC2=O [6-(3-amino-6-(4-(4-hydroxytetrahydro-2H-pyran-4-yl)phenyl)pyrazin-2-yl)-3,4-dihydroisoquinolin-1(2H)-one] | < 0.05 | < 0.01
4 | Nc1ncc(-c2ccc(S(=O)(=O)CC3CC3)cc2)nc1-c1ccc2c(c1)CCNC2=O [6-(3-amino-6-(4-((cyclopropylmethyl)sulfonyl)phenyl)pyrazin-2-yl)-3,4-dihydroisoquinolin-1(2H)-one] | < 0.05 | < 0.01
5 | Nc1ncc(-c2ccc(S(F)(F)(F)(F)F)cc2)nc1-c1ccc2c(c1)CCNC2=O [6-(3-amino-6-(4-(pentafluorosulfanyl)phenyl)pyrazin-2-yl)-3,4-dihydroisoquinolin-1(2H)-one] | < 0.15 | < 0.05
6 | Nc1ncc(-c2ccc(S(=O)(=O)N3CCCCC3)cc2)nc1-c1ccc2c(=O)[nH]ccc2c1 [6-(3-amino-6-(4-(piperidin-1-ylsulfonyl)phenyl)pyrazin-2-yl)isoquinolin-1(2H)-one] | < 0.01 | < 0.01
7 | CC(C)(C)c1ccc(-c2cnc(N)c(-c3ccc4c(c3)CCNC4=O)n2)cc1 [6-(3-amino-6-(4-(tert-butyl)phenyl)pyrazin-2-yl)-3,4-dihydroisoquinolin-1(2H)-one] | < 0.05 | < 0.01
8 | Nc1ncc(-c2ccc(F)cc2)nc1-c1cc2c(cn1)C(=O)NCC2 [6-(3-amino-6-(4-fluorophenyl)pyrazin-2-yl)-3,4-dihydro-2,7-naphthyridin-1(2H)-one] | < 0.01 | < 0.01
9 | CCC(=O)c1ccc(-c2cnc(N)c(-c3ccc4c(c3)CCNC4=O)n2)cc1 [6-(3-amino-6-(4-propionylphenyl)pyrazin-2-yl)-3,4-dihydroisoquinolin-1(2H)-one] | < 0.05 | < 0.01
10 | Nc1ncc(-c2ccc(S(=O)(=O)N3CCCC34CC4)cc2)cc1-c1ccc2c(c1)CCNC2=O [6-(5-(4-(4-azaspiro[2.4]heptan-4-ylsulfonyl)phenyl)-2-aminopyridin-3-yl)-3,4-dihydroisoquinolin-1(2H)-one] | < 0.05 | < 0.01
11 | COC[C@H]1C[C@@H]1N(C)S(=O)(=O)c1ccc(-c2cnc(N)c(-c3ccc4c(c3)CCNC4=O)n2)nc1 [6-(5-amino-6-(1-oxo-1,2,3,4-tetrahydroisoquinolin-6-yl)pyrazin-2-yl)-N-((1S,2S)-2-(methoxymethyl)cyclopropyl)-N-methylpyridine-3-sulfonamide] | < 0.15 | < 0.05
12 | CN(C1CC1)S(=O)(=O)c1ccc(-c2cnc(N)c(-c3ccc4c(c3)CCNC4=O)n2)nc1 [6-(5-amino-6-(1-oxo-1,2,3,4-tetrahydroisoquinolin-6-yl)pyrazin-2-yl)-N-cyclopropyl-N-methylpyridine-3-sulfonamide] | < 0.01 | < 0.01
13 | [2H]C([2H])([2H])N(C1CC1)S(=O)(=O)c1ccc(-c2cnc(N)c(-c3ccc4c(c3)CCNC4=O)n2)nc1 [6-(5-amino-6-(1-oxo-1,2,3,4-tetrahydroisoquinolin-6-yl)pyrazin-2-yl)-N-cyclopropyl-N-trideuteromethylpyridine-3-sulfonamide] | < 0.01 | < 0.01
14 | CCN(C)S(=O)(=O)c1cnc(-c2cnc(N)c(-c3ccc4c(c3)CCNC4=O)n2)cc1C [6-(5-amino-6-(1-oxo-1,2,3,4-tetrahydroisoquinolin-6-yl)pyrazin-2-yl)-N-ethyl-N,4-dimethylpyridine-3-sulfonamide] | < 0.01 | < 0.01
15 | CCN(C)S(=O)(=O)c1ccc(-c2cnc(N)c(-c3ccc4c(c3)CCNC4=O)n2)nc1 [6-(5-amino-6-(1-oxo-1,2,3,4-tetrahydroisoquinolin-6-yl)pyrazin-2-yl)-N-ethyl-N-methylpyridine-3-sulfonamide] | < 0.01 | < 0.01
16 | CN(C)S(=O)(=O)N1CC=C(c2cnc(N)c(-c3ccc4c(c3)CCNC4=O)c2)CC1 [6-amino-N,N-dimethyl-5-(1-oxo-1,2,3,4-tetrahydroisoquinolin-6-yl)-5′,6′-dihydro-[3,4′-bipyridine]-1′(2′H)-sulfonamide] | < 0.15 | < 0.05
17 | Nc1ncc(-c2ccc(F)cc2)nc1-c1ccc2c(c1)C1(CC1)CNC2=O [6′-(3-amino-6-(4-fluorophenyl)pyrazin-2-yl)-2′,3′-dihydro-1′H-spiro[cyclopropane-1,4′-isoquinolin]-1′-one] | < 0.15 | < 0.01
18 | Cc1cc(-c2cnc(N)c(-c3ccc4c(c3)CCNC4=O)c2)ncc1S(=O)(=O)NC1CC1 [6′-amino-N-cyclopropyl-4-methyl-5′-(1-oxo-1,2,3,4-tetrahydroisoquinolin-6-yl)-[2,3′-bipyridine]-5-sulfonamide] | < 0.01 | < 0.01
19 | Nc1ncc(-c2ccc(S(=O)(=O)NC3CC3)cn2)cc1-c1ccc2c(c1)CCNC2=O [6′-amino-N-cyclopropyl-5′-(1-oxo-1,2,3,4-tetrahydroisoquinolin-6-yl)-[2,3′-bipyridine]-5-sulfonamide] | < 0.01 | < 0.01
20 | CN(C1CC1)S(=O)(=O)c1ccc(-c2cnc(N)c(-c3ccc4c(c3)CCNC4=O)c2)nc1 [6′-amino-N-cyclopropyl-N-methyl-5′-(1-oxo-1,2,3,4-tetrahydroisoquinolin-6-yl)-[2,3′-bipyridine]-5-sulfonamide] | < 0.01 | < 0.01
21 | CN(C1CC1)S(=O)(=O)c1ccc(-c2cnc(N)c(-c3ccc4c(c3)CCNC4=O)c2)cn1 [6′-amino-N-cyclopropyl-N-methyl-5′-(1-oxo-1,2,3,4-tetrahydroisoquinolin-6-yl)-[3,3′-bipyridine]-6-sulfonamide] | < 0.01 | < 0.01
22 | CCN(C)S(=O)(=O)c1ccc(-c2cnc(N)c(-c3ccc4c(c3)CCNC4=O)c2)nc1 [6′-amino-N-ethyl-N-methyl-5′-(1-oxo-1,2,3,4-tetrahydroisoquinolin-6-yl)-[2,3′-bipyridine]-5-sulfonamide] | < 0.01 | < 0.01
23 | CCCN(C)S(=O)(=O)c1ccc(-c2cnc(N)c(-c3ccc4c(c3)CCNC4=O)c2)nc1 [6′-amino-N-methyl-5′-(1-oxo-1,2,3,4-tetrahydroisoquinolin-6-yl)-N-propyl-[2,3′-bipyridine]-5-sulfonamide] | < 0.01 | < 0.01
24 | N#C[C@]1(c2ccc(-c3cnc(N)c(-c4ccc5c(c4)CCNC5=O)n3)cc2)[C@@H]2COC[C@@H]21 [(1R,5S,6s)-6-(4-(5-amino-6-(1-oxo-1,2,3,4-tetrahydroisoquinolin-6-yl)pyrazin-2-yl)phenyl)-3-oxabicyclo[3.1.0]hexane-6-carbonitrile] | < 0.05 | < 0.01
25 | CCNS(=O)(=O)c1ccc(-c2cnc(N)c(-c3ccc4c(c3)CCC/C4=N\O)c2)cc1 [(E)-4-(6-amino-5-(5-(hydroxyimino)-5,6,7,8-tetrahydronaphthalen-2-yl)pyridin-3-yl)-N-ethylbenzenesulfonamide] | < 0.05 | < 0.01
26 | CN(C1CC1)S(=O)(=O)c1ccc(-c2cnc(N)c(-c3ccc4c(c3)OC[C@@H](COCc3ccccc3)NC4=O)c2)cc1 [(R)-4-(6-amino-5-(3-((benzyloxy)methyl)-5-oxo-2,3,4,5-tetrahydrobenzo[f][1,4]oxazepin-8-yl)pyridin-3-yl)-N-cyclopropyl-N-methylbenzenesulfonamide] | < 0.15 | < 0.01
27 | C[C@@H]1COc2cc(-c3cc(-c4ccc(S(=O)(=O)N(C)C5CC5)cc4)cnc3N)ccc2C(=O)N1 [(R)-4-(6-amino-5-(3-methyl-5-oxo-2,3,4,5-tetrahydrobenzo[f][1,4]oxazepin-8-yl)pyridin-3-yl)-N-cyclopropyl-N-methylbenzenesulfonamide] | < 0.01 | < 0.01
28 | C[C@H]1CNc2cc(-c3nc(-c4ccc(S(=O)(=O)N(C)C5CC5)cc4)cnc3N)ccc2C(=O)N1 [(S)-4-(5-amino-6-(3-methyl-5-oxo-2,3,4,5-tetrahydro-1H-benzo[e][1,4]diazepin-8-yl)pyrazin-2-yl)-N-cyclopropyl-N-methylbenzenesulfonamide] | < 0.01 | < 0.01
29 | CN(C1CC1)S(=O)(=O)c1ccc(-c2cnc(N)c(-c3ccc4c(c3)OC[C@H](CO)NC4=O)c2)cc1 [(S)-4-(6-amino-5-(3-(hydroxymethyl)-5-oxo-2,3,4,5-tetrahydrobenzo[f][1,4]oxazepin-8-yl)pyridin-3-yl)-N-cyclopropyl-N-methylbenzenesulfonamide] | < 0.01 | < 0.01
30 | C[C@H]1CNc2cc(-c3cc(-c4ccc(S(=O)(=O)N(C)C5CC5)cc4)cnc3N)ccc2C(=O)N1 [(S)-4-(6-amino-5-(3-methyl-5-oxo-2,3,4,5-tetrahydro-1H-benzo[e][1,4]diazepin-8-yl)pyridin-3-yl)-N-cyclopropyl-N-methylbenzenesulfonamide] | < 0.01 | < 0.01
